Assay results reported in US20120214784A1, “SPIROPIPERIDINE COMPOUNDS AS ORL-1 RECEPTOR ANTAGONISTS” (ELI LILLY AND COMPANY, priority 2009, published 2012).

How the values were obtained:
[1] = target: human ERG (hERG) K+ channel (Homo sapiens, UniProt Q12809); experiment: hERG channel [3H]astemizole binding assay
Experimental: Blockade of K^+-channel conductance in the heart is associated with cardiotoxicity in the form of QT-wave prolongation. The affinity (Ki) of the exemplified nociceptin receptor antagonists for the human ERG (hERG) K^+ channel is determined in HEK293 cells expressing cloned hERG using the hERG channel antagonist radioligand [3H]astemizole (2 nM final assay concentration) according to well known procedures (see for example Finlayson K, et al. (Eur J Pharmacol. 412(3):203-12, 2001) [3H]Astemizole binding assays are performed at the contract research company Cerep (Paris France) according to standard procedures.

[2] = target: T1, cloned human ORL1 receptors (Homo sapiens, UniProt P41146); experiment: [3H]-OFQ/nociceptin receptor binding assay
T1 construct: expressed in transfected cells; host or cells: CHO cells (membranes)
T1 sequence (P41146 whole entry): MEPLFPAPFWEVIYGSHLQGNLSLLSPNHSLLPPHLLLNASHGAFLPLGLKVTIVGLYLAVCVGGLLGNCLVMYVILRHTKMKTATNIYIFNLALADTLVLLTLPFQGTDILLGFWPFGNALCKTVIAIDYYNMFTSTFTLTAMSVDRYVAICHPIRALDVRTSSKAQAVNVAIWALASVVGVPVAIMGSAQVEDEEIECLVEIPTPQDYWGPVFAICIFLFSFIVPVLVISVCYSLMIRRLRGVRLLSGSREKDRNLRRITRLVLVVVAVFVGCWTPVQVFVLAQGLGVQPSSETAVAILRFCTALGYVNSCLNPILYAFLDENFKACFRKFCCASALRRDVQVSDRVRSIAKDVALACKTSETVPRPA
Experimental: (§1) Radioligand binding assays are commonly used to determine the affinity (Ki) or potency of a compound to bind to a particular receptor or target protein. A filtration-based [3H]-OFQ/nociceptin receptor binding assay is developed based on previous assay formats (Ardati A, Henningsen R A, Higelin J, Reinscheid R K, Civelli O, Monsma F J Jr. Mol. Pharmacol. 1997 May; 51(5):816-24.) with minor modifications. [3H]-OFQ/nociceptin binding assays are carried out in deep-well 96-well plates. [^3H]OFQ (final assay concentration 0.2 nM) competition studies are carried out with 5-10 μg of membrane protein (isolated from Chinese hamster ovary cells (CHO cells) expressing cloned human ORL1 receptors) in a final assay volume of 0.5 mL of buffer containing 20 mM HEPES, pH 7.4, 5 mM MgCl2, 1 mM EGTA, 100 mM NaCl, 0.1% bovine serum albumin. Samples are incubated for 60 min. at room temperature, which is found to be optimal for competition assays. The assays are terminated by filtration through glass fiber filters (Wallac filtermat A) [pretreated with 0.3% polyethylenimine (Sigma) for 1 hr] on a Tometc cell harvester, and the filters are washed three times with 5 mL of ice-cold 50 mM Tris.HCl, pH 7.4. Filtermats are then dried and imbedded with Meltilex scintillant A and the radioactivity counted in a Wallac Microbeta scintillation counter. Specific binding is determined by displacement with 100 nM unlabeled nociceptin. Curves are plotted as the percent of specific binding and IC50 values are determined using a sigmoidal dose response curve with variable slope. K, values are calculated from the IC50 by the equation of Cheng and Prusoff (Cheng, Y. C., and Prusoff, W. H., Biochem. Pharmacol. 22, 3099-3108 (1973)) where Ki=IC50×(1+D×Kd^−1)^−1. Similarly, Ki for the mu, kappa and delta opioids, serotonin, adrenergic, and muscarinic receptors may be determined using membranes expressing the desired receptor and appropriate corresponding radioligand competitor molecules.

[3] = target: T2, cloned human ORL1/nociceptin receptors (Homo sapiens, UniProt P41146); experiment: Functional blockade of agonist-mediated G-protein activation, GTP-γ-[35S] binding; assay type: biochemical
T2 construct: expressed in transfected cells
T2 sequence (P41146 whole entry): as above
Text: Agonist-mediated stimulation of G-protein coupled receptors results in the activation of membrane associated Gαβγ-protein heterotrimer complexes, and represents the first step in the transduction of extracellular signals to modification of intracellular pathways. The first step in activation of receptor-mediated activation of Gαβγ-proteins heterotrimer is the exchange of Gα subunit bound guanosine diphoshpate (GDP) for guanosine triphosphate (GTP). The binding of GTP to the Gα subunit causes dissociation of the heterotrimer subunits, Gβ and Gγ, resulting in the modulation of several intracellular signaling cascades. Measurement of receptor-mediated G-protein activation can be measured using the non-hydrolyzable radiolabeled analog of GTP, GTP-γ-[35S]. Utilizing this methodology, antagonist affinity (Kb) is measured in membranes expressing cloned human ORL1/nociceptin receptors using a GTP-γ-[35S] binding assay according to previously described protocols with minor modifications (DeLapp et al., J Pharmacol Exp Ther. 1999 May; 289(2):946-55; Ozaki et al., Eur J Pharmacol. 2000 Aug. 18; 402(1-2):45-53). Assays are conducted in a 200-μl volume with the following buffer composition: 100 mM NaCl, 20 mM HEPES, 5 mM MgCl2, 1 mM EDTA, 0.1% BSA, 3 μM GDP, 0.5 nM [^35S]GTPγS. ORL1 receptor membrane suspension is added at a concentration of 20 μg protein per well and receptor stimulation is achieved using 300 nM nociceptin/OFQ. Wheat germ agglutinin coated SPA beads (Amersham, Arlington Hts., Ill.) are added at 1 mg per well to detect membrane-bound [^35S]GTPγS. Plates are sealed and incubated for 2 hr. at room temperature. Plates are then placed at 4° C. overnight to allow the SPA beads to settle and then counted in a Wallac Microbeta. Specific [^35S]GTPγS binding is determined as the difference in CPM observed in the absence and presence of 10 μM unlabeled GTPγS. Data are plotted as the percent of specific [^35S]GTPγS bound. Curves are plotted as the percent of specific binding and IC50 values are determined using a sigmoidal dose response curve with variable slope. Antagonist affinity (Kb) is estimated according to DeLapp et al., 1999 using a modification of the equation of Cheng and Prusoff (1973) where Kb=IC50×(1+D×EC50^−1)^−1.

[4] = test system: wild type and ORL knockout mice; experiment: Blockade of fasting-induced hyperphagia in mice; assay type: in vivo, mouse; conditions: wild type mice, oral gavage 30 min. prior to food, food intake 1 hr
Text: Blockade of fasting-induced hyperphagia in rats is an accepted model for hyperphagic eating disorders. […] Mice are individually housed a minimum of 3 days prior to the onset of testing to eliminate any effects of stress due to the change from group to individual housing. Three mice/genotype are randomly assigned to each treatment group on the test day. Pre-fast body weight measurements are taken, and food is then removed from cages overnight. Mice are fasted for approximately 15 hr. The next morning, the mice are given one of three doses of drug or vehicle via oral gavage 30 min. prior to gaining access to food. Drugs are dissolved in 20% Captisol dissolved in 25 mM phosphate buffer, pH 2.0. Measurements of body weight are taken immediately prior to drug treatment or 24 hr. after access to food is restored. […] Measurements of food intake are recorded 1 hr following access to food, as indicated, by weight of food remaining at 1 hr. It should be noted that food intake measured is during the light phase, a time during which mice are typically at rest and not normally eating. Following initial testing, mice are rested for 1 week with access to unlimited chow.

5-HT2B = 5-HT2B (Homo sapiens, UniProt P41595); experiment: Radioligand binding selectivity
Experimental: as §1

5-HT1B = 5-HT1B (Homo sapiens, UniProt P28222); experiment: Radioligand binding selectivity; conditions: 5-HT1B; read-out: Ki
5-HT1B, sequence (P28222 whole entry, species assumed): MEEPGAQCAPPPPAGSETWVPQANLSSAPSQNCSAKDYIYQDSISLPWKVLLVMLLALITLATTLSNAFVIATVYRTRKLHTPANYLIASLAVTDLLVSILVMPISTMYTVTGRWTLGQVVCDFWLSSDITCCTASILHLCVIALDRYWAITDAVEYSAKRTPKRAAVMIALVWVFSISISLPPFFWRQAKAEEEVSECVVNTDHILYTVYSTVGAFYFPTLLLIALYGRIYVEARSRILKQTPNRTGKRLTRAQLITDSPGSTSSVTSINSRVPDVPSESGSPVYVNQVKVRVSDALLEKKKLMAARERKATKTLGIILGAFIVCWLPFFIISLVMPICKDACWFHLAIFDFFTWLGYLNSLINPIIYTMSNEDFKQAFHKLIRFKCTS
Experimental: as §1

5-HT2C = 5-HT2C (Homo sapiens, UniProt P28335); experiment: Radioligand binding selectivity; conditions: 5-HT2C; read-out: Ki
Experimental: as §1

5-HT1D = 5-HT1D (Homo sapiens, UniProt P28221); experiment: Radioligand binding selectivity; conditions: 5-HT1D; read-out: Ki
5-HT1D, sequence (P28221 whole entry, species assumed): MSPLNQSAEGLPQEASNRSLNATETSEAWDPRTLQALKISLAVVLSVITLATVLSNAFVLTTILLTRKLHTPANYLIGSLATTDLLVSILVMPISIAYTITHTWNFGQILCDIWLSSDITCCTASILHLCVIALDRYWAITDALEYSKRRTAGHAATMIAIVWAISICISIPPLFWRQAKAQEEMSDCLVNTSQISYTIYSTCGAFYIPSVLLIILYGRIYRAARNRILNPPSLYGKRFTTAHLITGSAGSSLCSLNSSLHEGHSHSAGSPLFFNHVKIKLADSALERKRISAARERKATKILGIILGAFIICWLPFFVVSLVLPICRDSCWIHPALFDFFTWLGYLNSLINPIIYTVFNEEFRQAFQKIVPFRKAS
Experimental: as §1

5-HT2A = 5-HT2A (Homo sapiens, UniProt P28223); experiment: Radioligand binding selectivity; conditions: 5-HT2A; read-out: Ki
5-HT2A, sequence (P28223 whole entry, species assumed): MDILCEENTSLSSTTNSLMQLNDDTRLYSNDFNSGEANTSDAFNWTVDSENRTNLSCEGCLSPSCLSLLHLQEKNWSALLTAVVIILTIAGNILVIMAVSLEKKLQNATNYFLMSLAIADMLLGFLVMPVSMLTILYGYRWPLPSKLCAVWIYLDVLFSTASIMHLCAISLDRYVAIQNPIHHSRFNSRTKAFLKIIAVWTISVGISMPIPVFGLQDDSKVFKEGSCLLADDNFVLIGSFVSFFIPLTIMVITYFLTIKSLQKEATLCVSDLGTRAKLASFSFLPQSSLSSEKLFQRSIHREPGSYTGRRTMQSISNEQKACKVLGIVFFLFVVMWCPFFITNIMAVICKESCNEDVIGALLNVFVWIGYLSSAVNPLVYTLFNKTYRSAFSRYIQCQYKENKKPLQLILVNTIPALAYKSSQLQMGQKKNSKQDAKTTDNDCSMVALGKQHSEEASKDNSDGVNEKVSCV
Experimental: as §1

5-HT5 = 5-HT5 (Homo sapiens, UniProt P47898); experiment: Radioligand binding selectivity; conditions: 5-HT5; read-out: Ki
5-HT5, sequence (P47898 whole entry, species assumed): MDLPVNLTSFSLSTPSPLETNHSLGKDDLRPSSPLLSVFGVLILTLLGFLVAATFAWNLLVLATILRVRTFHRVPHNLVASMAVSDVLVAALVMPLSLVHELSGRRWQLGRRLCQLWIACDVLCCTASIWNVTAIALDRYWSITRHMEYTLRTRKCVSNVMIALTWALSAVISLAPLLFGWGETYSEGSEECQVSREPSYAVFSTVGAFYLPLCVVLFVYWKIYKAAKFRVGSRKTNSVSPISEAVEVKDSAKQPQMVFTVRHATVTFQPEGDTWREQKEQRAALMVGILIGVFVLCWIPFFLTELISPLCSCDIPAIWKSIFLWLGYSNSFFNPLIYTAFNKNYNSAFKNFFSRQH
Experimental: as §1

5-HT7 = 5-HT7 (Homo sapiens, UniProt P34969); experiment: Radioligand binding selectivity; conditions: 5-HT7; read-out: Ki
5-HT7, sequence (P34969 whole entry, species assumed): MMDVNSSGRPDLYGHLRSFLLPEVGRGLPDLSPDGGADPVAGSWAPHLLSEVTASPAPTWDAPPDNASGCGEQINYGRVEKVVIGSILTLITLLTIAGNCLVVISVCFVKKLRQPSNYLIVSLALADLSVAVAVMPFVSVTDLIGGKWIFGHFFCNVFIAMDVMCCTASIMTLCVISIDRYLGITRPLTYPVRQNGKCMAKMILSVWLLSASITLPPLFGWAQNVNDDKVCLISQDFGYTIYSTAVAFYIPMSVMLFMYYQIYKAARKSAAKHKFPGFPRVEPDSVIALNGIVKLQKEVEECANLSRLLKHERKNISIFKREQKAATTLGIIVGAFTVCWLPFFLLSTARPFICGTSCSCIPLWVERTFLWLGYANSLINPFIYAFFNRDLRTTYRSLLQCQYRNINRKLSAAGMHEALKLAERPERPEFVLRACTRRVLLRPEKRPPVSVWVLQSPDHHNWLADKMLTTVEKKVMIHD
Experimental: as §1

5-HT1F = 5-HT1F (Homo sapiens, UniProt P30939); experiment: Radioligand binding selectivity
Experimental: as §1

5-HT4 = 5-HT4 (Homo sapiens, UniProt Q13639); experiment: Radioligand binding selectivity; conditions: 5-HT4; read-out: Ki
5-HT4, sequence (Q13639 whole entry, species assumed): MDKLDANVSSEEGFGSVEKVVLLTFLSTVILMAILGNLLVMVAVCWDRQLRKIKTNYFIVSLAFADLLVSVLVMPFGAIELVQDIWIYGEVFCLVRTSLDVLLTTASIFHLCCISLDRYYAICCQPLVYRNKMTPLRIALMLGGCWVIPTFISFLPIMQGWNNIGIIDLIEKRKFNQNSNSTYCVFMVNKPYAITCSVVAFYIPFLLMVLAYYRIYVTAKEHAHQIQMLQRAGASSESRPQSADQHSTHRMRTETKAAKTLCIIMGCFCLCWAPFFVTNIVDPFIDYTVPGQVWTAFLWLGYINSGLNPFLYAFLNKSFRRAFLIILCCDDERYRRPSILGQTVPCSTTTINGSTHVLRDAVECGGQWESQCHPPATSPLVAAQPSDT
Experimental: as §1

5-HT1E = 5-HT1E (Homo sapiens, UniProt P28566); experiment: Radioligand binding selectivity; conditions: 5-HT1E; read-out: Ki
5-HT1E, sequence (P28566 whole entry, species assumed): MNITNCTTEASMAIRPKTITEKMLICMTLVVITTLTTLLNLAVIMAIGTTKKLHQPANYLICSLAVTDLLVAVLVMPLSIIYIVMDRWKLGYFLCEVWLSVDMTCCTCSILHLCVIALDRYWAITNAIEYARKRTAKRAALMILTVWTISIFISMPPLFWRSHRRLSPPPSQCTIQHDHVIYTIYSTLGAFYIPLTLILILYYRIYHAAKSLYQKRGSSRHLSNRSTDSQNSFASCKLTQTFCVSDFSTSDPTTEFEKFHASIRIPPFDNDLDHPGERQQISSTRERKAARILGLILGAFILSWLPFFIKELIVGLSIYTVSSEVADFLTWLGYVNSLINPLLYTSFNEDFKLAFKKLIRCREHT
Experimental: as §1

5-HT6 = 5-HT6 (Homo sapiens, UniProt P50406); experiment: Radioligand binding selectivity; conditions: 5-HT6; read-out: Ki
5-HT6, sequence (P50406 whole entry, species assumed): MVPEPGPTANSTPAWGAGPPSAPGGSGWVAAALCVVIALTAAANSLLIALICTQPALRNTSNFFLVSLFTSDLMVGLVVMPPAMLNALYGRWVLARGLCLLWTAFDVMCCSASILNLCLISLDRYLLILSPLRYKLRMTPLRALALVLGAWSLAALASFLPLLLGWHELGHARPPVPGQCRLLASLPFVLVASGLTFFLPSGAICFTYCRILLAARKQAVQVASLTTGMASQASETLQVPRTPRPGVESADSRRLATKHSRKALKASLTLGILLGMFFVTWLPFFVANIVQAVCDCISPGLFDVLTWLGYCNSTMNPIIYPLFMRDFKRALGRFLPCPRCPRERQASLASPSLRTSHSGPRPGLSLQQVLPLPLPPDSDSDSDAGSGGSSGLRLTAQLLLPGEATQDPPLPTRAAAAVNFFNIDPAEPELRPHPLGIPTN
Experimental: as §1

[5] = target: T3, nociceptin/ORL1 receptors (Rattus norvegicus, UniProt P35370); experiment: In vivo receptor occupancy (LC/MS/MS, RO Tracer) in hypothalamus; conditions: oral 3 mg/kg dose after 6 hr.
T3 construct: rats are sacrificed by cervical dislocation and the hypothalamus is removed; from tissue; host or cells: rat hypothalamus (in vivo occupancy)

human ERG (hERG) K+ channel, sequence (Q12809 whole entry): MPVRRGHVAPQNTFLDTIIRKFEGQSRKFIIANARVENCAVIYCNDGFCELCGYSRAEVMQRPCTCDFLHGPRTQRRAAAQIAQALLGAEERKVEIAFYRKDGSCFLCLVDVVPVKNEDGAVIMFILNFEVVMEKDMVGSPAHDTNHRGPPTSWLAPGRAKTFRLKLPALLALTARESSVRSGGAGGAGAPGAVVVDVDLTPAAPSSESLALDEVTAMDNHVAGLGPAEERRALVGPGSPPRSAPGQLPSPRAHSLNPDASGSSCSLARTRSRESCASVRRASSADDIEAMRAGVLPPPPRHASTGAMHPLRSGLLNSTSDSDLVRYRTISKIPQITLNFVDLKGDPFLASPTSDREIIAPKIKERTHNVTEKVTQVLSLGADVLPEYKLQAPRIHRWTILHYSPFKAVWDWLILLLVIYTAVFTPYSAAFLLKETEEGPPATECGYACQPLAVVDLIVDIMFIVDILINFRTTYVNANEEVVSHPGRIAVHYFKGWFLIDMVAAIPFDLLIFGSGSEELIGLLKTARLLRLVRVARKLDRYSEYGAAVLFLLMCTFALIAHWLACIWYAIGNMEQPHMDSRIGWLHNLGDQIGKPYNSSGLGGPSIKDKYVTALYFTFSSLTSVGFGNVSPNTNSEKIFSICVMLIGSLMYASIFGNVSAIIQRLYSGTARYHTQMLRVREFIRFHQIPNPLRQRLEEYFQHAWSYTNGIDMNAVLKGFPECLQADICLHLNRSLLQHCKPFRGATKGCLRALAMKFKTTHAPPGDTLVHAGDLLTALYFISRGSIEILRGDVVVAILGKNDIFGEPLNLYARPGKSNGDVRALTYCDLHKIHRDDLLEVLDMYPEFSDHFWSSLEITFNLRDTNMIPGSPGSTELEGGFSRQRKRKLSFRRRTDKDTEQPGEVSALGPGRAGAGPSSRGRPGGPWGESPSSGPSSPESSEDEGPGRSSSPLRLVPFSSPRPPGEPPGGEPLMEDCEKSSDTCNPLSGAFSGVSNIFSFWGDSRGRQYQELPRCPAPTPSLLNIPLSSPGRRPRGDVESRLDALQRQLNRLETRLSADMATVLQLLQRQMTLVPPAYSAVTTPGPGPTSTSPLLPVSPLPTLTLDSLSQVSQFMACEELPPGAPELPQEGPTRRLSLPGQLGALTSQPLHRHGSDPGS

OCc1nn(-c2c(F)cccc2F)cc1CN1CCC2(CC1)OCC(F)(F)c1cc(Cl)sc12 [Example 50, [4-[(2-Chloro-4,4-difluoro-spiro[5H-thieno[2,3-c]pyran-7,4′-piperidine]-1′-yl)methyl]-1-(2,6-difluorophenyl)pyrazol-3-yl]methanol]
Ki [1]: 7 µM
Ki [2]: 0.89 nM
Kb [3]: 0.54 nM
fasting-induced hyperphagia [4]: substantially block fasting-induced hyperphagia
Ki (5-HT2B): 42.9 nM
Ki (5-HT1B): > 3.58 µM
Ki (5-HT2C): 4.75 µM
Ki (5-HT1D): > 8.55 µM
Ki (5-HT2A): > 5 µM
Ki (5-HT5): > 9.09 µM
Ki (5-HT7): > 3.98 µM
Ki (5-HT1F): > 8.52 µM
Ki (5-HT4): > 4.12 µM
Ki (5-HT1E): > 5.37 µM
Ki (5-HT6): > 5.83 µM
receptor occupancy at 3 mg/kg [5]: 81%
